Patent US20250257325A1, “SYSTEM AND COMPOSITION OF R[…] FOR P[…] VIRUSES AND METHODS THEREOF” (The University of Hong Kong, priority 2024, published 2025)
Entries after “also recorded” stand apart in the source; their conditions may differ.

Key:
[1] = tested on: HRV-C3; experiment: HRV-C3 replication and serial passage in airway organoids with CYT387 or DMSO (viral load by RT-qPCR); format: cell-based, human rhinovirus C; conditions: human airway organoids; for serial HRV-C propagation (P1-P5) and viral load versus DMSO-treated organoids: 1 μg/ml CYT387, media harvested at 96 h.p.i.
Procedure: We examined HRV-C replication in airway organoids in the presence or absence of CYT387 (FIG. 2A). Briefly, we inoculated an HRV-C3+ medium (medium collected from organoids infected by an HRV-C3+ clinical specimen) onto the airway organoids pre-treated with 1 μg/ml CYT387 or DMSO. The infected organoids were further incubated with CYT387 (CYT thereafter) or DMSO for 96 hours, after which we harvested the culture medium (P1) to examine viral growth. P1 media from CYT- and mock-treated organoids were brought forward to P2 passage in the presence of CYT and DMSO, respectively (FIG. 2A). […] In the following P3 passage, we had to inoculate CYT-treated P2 media onto airway organoids, in which we continued CYT or DMSO treatment to verify the enhancement effect of CYT. This CYT-treated media inoculation, followed by CYT or DMSO treatment, was repeated in the subsequent P4 and P5 passage.
A total of 9 HRV-C positive archived nasopharyngeal specimens from clinical patients were used for the study. Mature human airway and nasal organoids growing on 24-transwell inserts were washed twice with the basal medium (Advanced DMEM/F-12 (Gibco) supplemented with 1% HEPES, 1% GlutaMAX, and 1% Penicillin/Streptomycin), followed by virus inoculation with the indicated viral gene copy and subsequent incubation in the PD medium (PneumaCult-ALI medium (STEMCELL Technologies) supplemented with 10 μM DAPT and 10 μM Y27632), at 37° C. for 4 h. After incubation, the airway or nasal organoids were washed 3 times with the basal medium to remove residual inoculum. The apical and basolateral chambers were replenished with 300 μl and 500 μl PD medium, respectively. As for CYT387 treatment, airway and nasal organoids were pre-incubated in the PD medium with 1 μg/ml CYT387 (Invivogen, inh-cy87) or DMSO overnight. After virus inoculation, PD medium supplemented with 1 μg/ml CYT387 or DMSO was dispersed into apical and basolateral chambers to maintain the organoids. To assess the effect of temperature on viral growth, we infected nasal organoids with HRV-C3 and HRV-A1 at 100 viral gene copy/cell and maintained the organoids at 33° C. or 37° C. […] Culture media were harvested from the infected organoids at the indicated h.p.i. to detect viral replication. To investigate the antiviral effect of inhibitors on HRV-C replication, organoids were inoculated with HRV-A1 or HRV-C3 at 1000 viral gene copy/cell and incubated with the PD medium in the presence of 1 μM Rupintrivir, 3 μM Itraconazole, or DMSO. The culture media were collected at the indicated h.p.i. for viral load detection. […]

[2] = tested on: HRV-C3; experiment: HRV-C3 serial passage in nasal organoids with CYT387 or DMSO (viral load by RT-qPCR); format: cell-based, human rhinovirus C; conditions: human nasal organoids, CYT387 vs DMSO, 100 viral gene copy/cell, 96 h.p.i.
Procedure: We inoculated nasal organoids with the HRV-C3+ medium collected from organoids infected with an HRV-C3+ clinical specimen in the presence of CYT or DMSO and collected culture media at 96 h.p.i. Due to the high viral load in DMSO-treated nasal organoids in a preliminary experiment, we changed the experimental design. Briefly, the virus-containing media from CYT- and DMSO-treated organoids were brought forward to the next round of infection with the CYT and DMSO treatment, respectively (FIG. 3A). […] Nonetheless, in the absence of CYT, nasal organoids derived from two different donors sustained four consecutive passages of HRV-C3 (FIG. 3B). We also tested HRV-C11+ (FIG. 3C) and HRV-C15+ (FIG. 3D) medium (the medium collected from organoids infected with an HRV-C11+ and HRV-C15+ clinical specimen respectively) in nasal organoids derived from another donor. The two subtypes of HRV-C were serially passaged three times with high viral loads, and more passages could be furthered, if necessary. Overall, nasal organoids per se sustained serial propagation of HRV-C without any intervention. […] HRV-C virions released from the nasal organoids were concentrated and applied to transmission electron microscope (TEM) examination. Virion particles sized around 30 nm, and empty capsid particles were readily discernible (FIG. 3F). […]

[3] = tested on: HRV-C3; experiment: Antiviral inhibition in airway organoids infected with HRV-C3 (viral load by RT-qPCR); format: cell-based, human rhinovirus C; conditions: human airway organoids, 1 μM Rupintrivir or 3 μM Itraconazole, 1000 viral gene copy/cell, compared with HRV-A
Procedure: (§1) We then performed an antibody-blocking experiment in nasal organoids to assess the role of CDHR3 on HRV-C replication. We examined HRV-C replication in the nasal organoids in the presence of two a-CDHR3 antibodies or an isotypic IgG. […] Itraconazole^32, a repurposed antifungal drug with documented efficacy against rhinoviruses, was also tested.
(§2) A total of 9 HRV-C positive archived nasopharyngeal specimens from clinical patients were used for the study. Mature human airway and nasal organoids growing on 24-transwell inserts were washed twice with the basal medium (Advanced DMEM/F-12 (Gibco) supplemented with 1% HEPES, 1% GlutaMAX, and 1% Penicillin/Streptomycin), followed by virus inoculation with the indicated viral gene copy and subsequent incubation in the PD medium (PneumaCult-ALI medium (STEMCELL Technologies) supplemented with 10 μM DAPT and 10 μM Y27632), at 37° C. for 4 h. After incubation, the airway or nasal organoids were washed 3 times with the basal medium to remove residual inoculum. The apical and basolateral chambers were replenished with 300 μl and 500 μl PD medium, respectively. As for CYT387 treatment, airway and nasal organoids were pre-incubated in the PD medium with 1 μg/ml CYT387 (Invivogen, inh-cy87) or DMSO overnight. […]

[4] = tested on: HRV-A1; experiment: Antiviral inhibition in airway organoids infected with HRV-A1 (viral load by RT-qPCR); format: cell-based, human rhinovirus A; conditions: human airway organoids, 1 μM Rupintrivir or 3 μM Itraconazole, 1000 viral gene copy/cell, compared with HRV-C
Procedure: as §1, §2

Row | SMILES | serial HRV-C propagation (P1-P5) and viral load versus DMSO-treated organoids [1] | serial HRV-C propagation (P1-P5) and viral load versus DMSO-treated organoids ([1]; listed as CYT) | viral replication in P2 passage ([1]; 1 μg/ml CYT387, no viral growth in DMSO-treated organoids) | viral load in P1 media ([1]; 1 μg/ml CYT387 vs DMSO, first passage, 96 h.p.i.) | viral growth [2] | inhibitory effect on HRV-C (relative viral load versus DMSO-treated organoids) [3] | inhibitory effect on HRV-A (relative viral load versus DMSO-treated organoids) [4]
1 | N#CCNC(=O)c1ccc(-c2ccnc(Nc3ccc(N4CCOCC4)cc3)n2)cc1 [CYT387, Momelotinib] | enabled serial propagation | consecutively passaged five times; also recorded: higher viral load | sustained robust viral replication | elevated viral load | significantly boosted viral growth |  | 
2 | CCOC(=O)/C=C/[C@H](C[C@@H]1CCNC1=O)NC(=O)[C@@H](CC(=O)[C@@H](NC(=O)c1cc(C)on1)C(C)C)Cc1ccc(F)cc1 [Rupintrivir] |  |  |  |  |  | more prominent inhibitory effect | more prominent inhibitory effect of both drugs on HRV-C than HRV-A
